Species: Rattus norvegicus
Test: DrugMatrix - Regimen: Daily Repeat
Format: toxicity, organism-based, Sprague-Dawley
Design: regimen Daily Repeat, gender Male, age 6-8 weeks
Details: in vivo, po, route oral GAVAGE, […]; for ABSOLUTE BASOPHIL / ABSOLUTE EOSINOPHIL / ABSOLUTE LYMPHOCYTE / ABSOLUTE MONOCYTE / ABSOLUTE SEGMENTED NEUTROPHIL / BASOPHIL / EOSINOPHIL / ERYTHROCYTE COUNT / HEMATOCRIT / HEMOGLOBIN / LEUKOCYTE COUNT / LYMPHOCYTE / MEAN CORPUSCULAR HEMOGLOBIN / MEAN CORPUSCULAR HEMOGLOBIN CONCENTRATION / MEAN CORPUSCULAR VOLUME / MONOCYTE / NEUTROPHIL / NUCLEATED RED BLOOD CELLS / PLATELET COUNT: tissue Blood; for ALANINE AMINOTRANSFERASE / ALBUMIN / ALKALINE PHOSPHATASE / ASPARTATE AMINOTRANSFERASE / BLOOD UREA NITROGEN / CARBON DIOXIDE / CHLORIDE / CHOLESTEROL / CREATINE PHOSPHOKINASE / CREATININE / GLUCOSE / LACTATE DEHYDROGENASE / LIPASE / PHOSPHORUS / POTASSIUM / SODIUM / TOTAL BILIRUBIN / TOTAL PROTEIN / URIC ACID: tissue Plasma
[1] = 0 mg/kg, 72 h, dose level Control, time 3 day
[2] = 0 mg/kg, 120 h, dose level Control, time 5 day
[3] = 3 mg/kg, 72 h, dose level Low, time 3 day

CS(=O)(=O)c1ccc(C2=C(c3ccccc3)C(=O)OC2)cc1 [ROFECOXIB]
ABSOLUTE BASOPHIL [1]: 0 CELLS/uL | ABSOLUTE EOSINOPHIL [1]: 0 CELLS/uL | ABSOLUTE LYMPHOCYTE [1]: 6275.67 CELLS/uL | ABSOLUTE MONOCYTE [1]: 40.67 CELLS/uL | ABSOLUTE SEGMENTED NEUTROPHIL [1]: 633.67 CELLS/uL | BASOPHIL [1]: 0% | EOSINOPHIL [1]: 0% | ERYTHROCYTE COUNT [1]: 5.2 x10E6/uL | HEMATOCRIT [1]: 32.78% | HEMOGLOBIN [1]: 12.98 G/DL | LEUKOCYTE COUNT [1]: 6.95 x10E3/uL | LYMPHOCYTE [1]: 90.17% | MEAN CORPUSCULAR HEMOGLOBIN [1]: 24.97 pg | MEAN CORPUSCULAR HEMOGLOBIN CONCENTRATION [1]: 39.62 G/DL | MEAN CORPUSCULAR VOLUME [1]: 63.03 fL | MONOCYTE [1]: 0.67% | NEUTROPHIL [1]: 9.17% | NUCLEATED RED BLOOD CELLS [1]: 0 /100WBC | PLATELET COUNT [1]: 1082.83 x10E3/uL | ALANINE AMINOTRANSFERASE [1]: 69.67 u/L | ALBUMIN [1]: 4.15 G/DL | ALKALINE PHOSPHATASE [1]: 430.5 u/L | ASPARTATE AMINOTRANSFERASE [1]: 90.83 u/L | BLOOD UREA NITROGEN [1]: 13 mg/dL | CARBON DIOXIDE [1]: 33 mmol/L | CHLORIDE [1]: 99.17 MEQ/L | CHOLESTEROL [1]: 70.5 mg/dL | CREATINE PHOSPHOKINASE [1]: 253.33 u/L | CREATININE [1]: 0.13 mg/dL | GLUCOSE [1]: 157.17 mg/dL | LACTATE DEHYDROGENASE [1]: 85 u/L | LIPASE [1]: 10 u/L | PHOSPHORUS [1]: 10.2 mg/dL | POTASSIUM [1]: 5.78 MEQ/L | SODIUM [1]: 144.12 MEQ/L | TOTAL BILIRUBIN [1]: 0.2 mg/dL | TOTAL PROTEIN [1]: 5.8 G/DL | URIC ACID [1]: 0.8 mg/dL | ABSOLUTE BASOPHIL [2]: 0 CELLS/uL | ABSOLUTE EOSINOPHIL [2]: 0 CELLS/uL | ABSOLUTE LYMPHOCYTE [2]: 10431 CELLS/uL | ABSOLUTE MONOCYTE [2]: 90.5 CELLS/uL | ABSOLUTE SEGMENTED NEUTROPHIL [2]: 1111.83 CELLS/uL | BASOPHIL [2]: 0% | EOSINOPHIL [2]: 0% | ERYTHROCYTE COUNT [2]: 5.51 x10E6/uL | HEMATOCRIT [2]: 34.67% | HEMOGLOBIN [2]: 13.5 G/DL | LEUKOCYTE COUNT [2]: 11.63 x10E3/uL | LYMPHOCYTE [2]: 89.67% | MEAN CORPUSCULAR HEMOGLOBIN [2]: 24.5 pg | MEAN CORPUSCULAR HEMOGLOBIN CONCENTRATION [2]: 38.95 G/DL | MEAN CORPUSCULAR VOLUME [2]: 62.87 fL | MONOCYTE [2]: 0.67% | NEUTROPHIL [2]: 9.67% | NUCLEATED RED BLOOD CELLS [2]: 0 /100WBC | PLATELET COUNT [2]: 1052.67 x10E3/uL | ALANINE AMINOTRANSFERASE [2]: 54.67 u/L | ALBUMIN [2]: 4.15 G/DL | ALKALINE PHOSPHATASE [2]: 359.83 u/L | ASPARTATE AMINOTRANSFERASE [2]: 83 u/L | BLOOD UREA NITROGEN [2]: 13.5 mg/dL | CARBON DIOXIDE [2]: 27.17 mmol/L | CHLORIDE [2]: 98.5 MEQ/L | CHOLESTEROL [2]: 66.83 mg/dL | CREATINE PHOSPHOKINASE [2]: 256.17 u/L | CREATININE [2]: 0.19 mg/dL | GLUCOSE [2]: 171.33 mg/dL | LACTATE DEHYDROGENASE [2]: 91.5 u/L | LIPASE [2]: 10.5 u/L | PHOSPHORUS [2]: 8.72 mg/dL | POTASSIUM [2]: 5.34 MEQ/L | SODIUM [2]: 142.53 MEQ/L | TOTAL BILIRUBIN [2]: 0.2 mg/dL | TOTAL PROTEIN [2]: 6.05 G/DL | URIC ACID [2]: 0.6 mg/dL | ABSOLUTE BASOPHIL [3]: 0 CELLS/uL | ABSOLUTE EOSINOPHIL [3]: 85.33 CELLS/uL | ABSOLUTE LYMPHOCYTE [3]: 8896 CELLS/uL | ABSOLUTE MONOCYTE [3]: 157.33 CELLS/uL | ABSOLUTE SEGMENTED NEUTROPHIL [3]: 594.67 CELLS/uL | BASOPHIL [3]: 0% | EOSINOPHIL [3]: 0.67% | ERYTHROCYTE COUNT [3]: 4.87 x10E6/uL | HEMATOCRIT [3]: 31.33% | HEMOGLOBIN [3]: 12.37 G/DL | LEUKOCYTE COUNT [3]: 9.73 x10E3/uL | LYMPHOCYTE [3]: 92% | MEAN CORPUSCULAR HEMOGLOBIN [3]: 25.37 pg | MEAN CORPUSCULAR HEMOGLOBIN CONCENTRATION [3]: 39.47 G/DL | MEAN CORPUSCULAR VOLUME [3]: 64.27 fL | MONOCYTE [3]: 1.33% | NEUTROPHIL [3]: 6% | NUCLEATED RED BLOOD CELLS [3]: 0 /100WBC | PLATELET COUNT [3]: 1073 x10E3/uL | ALANINE AMINOTRANSFERASE [3]: 72.67 u/L | ALBUMIN [3]: 3.97 G/DL | ALKALINE PHOSPHATASE [3]: 379.67 u/L | ASPARTATE AMINOTRANSFERASE [3]: 91.33 u/L | BLOOD UREA NITROGEN [3]: 11.33 mg/dL | CARBON DIOXIDE [3]: 30.33 mmol/L | CHLORIDE [3]: 103.33 MEQ/L | CHOLESTEROL [3]: 80.33 mg/dL | CREATINE PHOSPHOKINASE [3]: 195.67 u/L | CREATININE [3]: 0.12 mg/dL | GLUCOSE [3]: 156 mg/dL | LACTATE DEHYDROGENASE [3]: 80 u/L | LIPASE [3]: 9.67 u/L | PHOSPHORUS [3]: 11.1 mg/dL | POTASSIUM [3]: 6.21 MEQ/L | SODIUM [3]: 149.03 MEQ/L | TOTAL BILIRUBIN [3]: 0.1 mg/dL | TOTAL PROTEIN [3]: 5.43 G/DL | URIC ACID [3]: 0.7 mg/dL
